# From patent publication US5871779A, “Treatment of arthropathies with vanadate compounds or analogues thereof” (Mount Sinai Hospital Corporation, priority 1996, dated 1999)
# Entries after “also recorded” stand apart in the source; their conditions may differ.
# Assays:
# collagenase [1] = experiment: collagenase mRNA expression in chondrocytes (Northern blot); format: cell-based, bovine; conditions: in the presence of IL 1; N-acetylcysteine 20 mM for 20 min
# Text: (§1) The cytokine interleukin 1 (IL 1) has been used to identify the intermediate second messengers which regulate the expression of fos and jun.
# Although IL 1 stimulated superoxide production, it was not known whether IL 1 induced fos and jun expression was dependent on the production of superoxides. In order to elucidate this possibility, the effect of DPI on fos and jun mRNA levels induced by IL 1 was investigated. RNA from chondrocytes treated with IL 1 in the presence and absence of DPI were analyzed by Northern blot analysis using either fos or collagenase cDNA probes. […] Similar data has been obtained for IL 1 induced jun expression. Furthermore, inhibition of fos and jun expression by DPI was sufficient to suppress IL 1 induced and constitutive collagenase expression.
# Cells were also incubated as described above with 20 mM N-acetylcysteine for 20 min. and then incubated with IL 1 for an additional 1 or 12 hours. The RNA was extracted and examined by Northern blot analysis using cDNA probes for c-fos and collagenase. N-acetylcysteine which is converted to GSH intracellularly was also found to reduce the levels of fos and collagenase expression in response to IL 1 (FIG. 5). Presumably the higher intracellular levels of GSH reduced H2 O2 and superoxide levels and suppressed the induction of fos and collagenase expression.
# c-fos = experiment: TNFα and bFGF induced c-fos mRNA in chondrocytes (Northern blot); format: cell-based, bovine; conditions: 30 mM, 2 hours preincubation
# Method: Chondrocyte cultures were stimulated with H2 O2 (100 μM) at different time points as indicated. […] Chondrocyte cultures were preincubated with NAC (30 mM) or Asc (100 μM) for 2 hours before the addition of bFGF (10 ng/ml) or TNFα (30 ng/ml) for 30 minutes. Both human recombinant TNFα and bFGF were dissolved in phosphate buffered saline with 0.1% bovine serum albumin. NAC and Asc were first dissolved in Ham's F12 medium containing 5% (v/v) fetal bovine serum, then neutralized with sodium hydroxide. Total RNA from bovine articular chondrocytes was isolated and the c-fos mRNA levels were determined by Northern blot analysis as described herein. The blots were subsequently stripped of DNA and re-probed with ^32 p-labelled rat β tubulin cDNA.
# Chondrocyte cultures were pretreated with DPI (2 μM) for 30 minutes before the addition of TNFα (30 ng/ml) or bFGF (10 ng/ml) for 30 minutes. Measurements of c-fos and tubulin mRNA levels were as described in Example 11.
# collagenase [2] = experiment: collagenase production by chondrocytes (ELISA); format: cell-based, bovine; conditions: summary statement
# Method: The effect of orthovanadate and N-acetylcysteine on fos, jun and collagenase expression were examined. Bovine articular chondrocytes were isolated and plated as previously described (Kandel R. A. et al. Biochim. Biophys. Acta. 1053, 130-134, 1990). In order to determine the effect of orthovanadate on IL 1 and PMA (phorbol ester) induced responses, chondrocytes were incubated with orthovanadate (100 μM) for 2 hours before stimulation with IL 1 (10 ng/ml) or PMA ([…]). Collagenase production was determined by incubating chondrocytes for 24 hours with IL 1 or PMA and the cell conditioned medium was assayed for collagenase activity using an ELISA procedure as described previously (Kandel et al. supra). PLA2 activity was measured by incorporating ^3 H-arachidonic acid (^3 H-AA) into the cells and then incubating the cells with medium containing 1 mg/ml BSA, either alone or in the presence of IL 1 or PMA, for 10 min. as previously described (Conquer, J. A. […], Biochim. Biophys. Acta. 1134, 1-6). The amount of ^3 H-AA liberated into the supernatant was determined. To measure PGE2 production, chondrocytes were incubated for 6 hours in Ham's F12 medium, either alone or with IL 1 or PMA. The supernatant was analyzed by RIA using an antibody specific for PGE2 (Dr. S. A. Jones, Mount Sinai Hospital, Toronto, Canada). In order to examine the expression of c-fos and c-jun, chondrocytes were incubated for 1 hour in the presence of IL-1, PMA or AA (3 μM). Chondrocytes were washed in PBS and the total RNA extracted as previously described (Cruz. et al, 1991, Biochem. J. 277, 327-330). RNA samples were run on formaldehyde agarose gels and transferred to nylon membrane for northern analysis using cDNA probes for c-fos and c-jun.
# [3] = test system: collagen induced arthritis; experiment: collagen induced arthritis, clinical arthritis score; format: in vivo, rats; conditions: NAC 100 mg/kg/day s.c.; listed as NAC
# Method: Syngeneic 8 week old female Louvain (LOU) rats were fed with standard lab chow and housed in the vivarium at the University of California, Los Angeles. […] E. et al., J. Exp. Med., 146: 857-868, 1977). […] Rats with definite arthritis on Day 10 post immunization were randomized into two groups. Control rats (n=8) received only NAC at a dose of 100 mg/kg/day s.c. NAC was prepared as a 3% aqueous solution. […] Clinical arthritis severity of each limb was scored daily based on an objective integer scale of 0-4 (Trentham, D. E. et al., J. Exp. Med., 146: 857-868, 1977). A score of 0 indicated an unaffected limb, while a score of 4 represented fulminant erythema and edema involving distal digits. The arthritic index of a rat is defined as the sum of its four limb scores. Since CIA typically involves only the hind limbs, an arthritic index of 6 to 8 is considered severe arthritis.
# fos = fos / c-fos mRNA expression in chondrocytes (Northern blot); format: cell-based, bovine; conditions: in the presence of IL 1; N-acetylcysteine 20 mM for 20 min
# Method: as §1
# In order to elucidate this possibility, the effect of DPI on fos and jun mRNA levels induced by IL 1 was investigated. RNA from chondrocytes treated with IL 1 in the presence and absence of DPI were analyzed by Northern blot analysis using either fos or collagenase cDNA probes.
# Since superoxides are rapidly converted to hydrogen peroxide in the cell by superoxide dismutase, whether hydrogen peroxide could mimic the effect of IL 1 in the induction of fos expression was investigated. RNA was extracted from chondrocytes (Kandel et al. supra) treated with H2 O2 for 30, 60 and 90 minutes and examined by Northern blot analysis using a fos cDNA probe.
# Bovine articular chondrocytes were isolated and plated as previously described (Kandel R. A. et al. Biochim. Biophys. Acta. 1053, 130-134, 1990). […] The amount of ^3 H-AA liberated into the supernatant was determined. To measure PGE2 production, chondrocytes were incubated for 6 hours in Ham's F12 medium, either alone or with IL 1 or PMA. […] In order to examine the expression of c-fos and c-jun, chondrocytes were incubated for 1 hour in the presence of IL-1, PMA or AA (3 μM). Chondrocytes were washed in PBS and the total RNA extracted as previously described (Cruz. et al, 1991, Biochem. J. 277, 327-330). RNA samples were run on formaldehyde agarose gels and transferred to nylon membrane for northern analysis using cDNA probes for c-fos and c-jun.
# The RNA was extracted and examined by Northern blot analysis using cDNA probes for c-fos and collagenase.
# tumor growth = tumor growth in vivo, orthovanadate and N-acetylcysteine (Example 7); parameters: species or system mice; conditions: combination with orthovanadate
# Method: Since N-acetylcysteine is converted to glutathione in cells, higher levels of glutathione may not only reduce orthovanadate induced toxicity but may also reduce tumor formation.
# Twenty mice were injected subcutaneously with 2×10^5 cells on Day 1. At day 4, the mice were divided into four groups of five mice. Group one (control) received subcutaneous injections of 50 μl of water. Group two received daily intraperitoneal injections of 50 μl of 250 mM N-acetylcysteine. Group three received daily subcutaneous injections of 50 μl of 10 mg/ml of orthovanadate. Group four received daily intraperitoneal injections of 50 μl of […] N-acetylcysteine and 20 minutes later received 50 μl of subcutaneous injection of 50 μl of 10 mg/ml of orthovanadate. On day 10 the treatment was stopped. The animals were sacrificed on Day 13 and analyzed for tumor growth.
compound,measurement,setting,value
CC(=O)N[C@@H](CS)C(=O)O [N-acetylcysteine],IL 1 induction of collagenase,collagenase [1],reduce
same,inhibition of TNFα and bFGF induced c-fos mRNA levels,c-fos,inhibit
same,"production of metalloproteases, such as collagenase",collagenase [2],inhibit
same,"arthritis development / clinical severity, NAC alone",[3],developed severe arthritis; also recorded: no appreciable effect
same,IL 1 induction of fos,fos,reduce
same,toxic effects observed with orthovanadate alone,tumor growth,reduce the slight toxic effects
